Assay [1] has as its target Phosphatidylinositol 3-kinase catalytic subunit type 3 (Homo sapiens) (UniProt Q8NEB9). Kind of assay: Inhibition of VPS34 (unknown origin) assessed as residual activity at 1000 nM by KINOMEscan analysis relative to control.
For assay [2], the target named is Eukaryotic translation initiation factor 2-alpha kinase 1 (Homo sapiens) (UniProt Q9BQI3). The assay can be described thus: Inhibition of EIF2AK1 (unknown origin) assessed as residual activity at 100 nM by KINOMEscan analysis relative to control.
Sequence of Eukaryotic translation initiation factor 2-alpha kinase 1 (Homo sapiens) (Q9BQI3 whole entry): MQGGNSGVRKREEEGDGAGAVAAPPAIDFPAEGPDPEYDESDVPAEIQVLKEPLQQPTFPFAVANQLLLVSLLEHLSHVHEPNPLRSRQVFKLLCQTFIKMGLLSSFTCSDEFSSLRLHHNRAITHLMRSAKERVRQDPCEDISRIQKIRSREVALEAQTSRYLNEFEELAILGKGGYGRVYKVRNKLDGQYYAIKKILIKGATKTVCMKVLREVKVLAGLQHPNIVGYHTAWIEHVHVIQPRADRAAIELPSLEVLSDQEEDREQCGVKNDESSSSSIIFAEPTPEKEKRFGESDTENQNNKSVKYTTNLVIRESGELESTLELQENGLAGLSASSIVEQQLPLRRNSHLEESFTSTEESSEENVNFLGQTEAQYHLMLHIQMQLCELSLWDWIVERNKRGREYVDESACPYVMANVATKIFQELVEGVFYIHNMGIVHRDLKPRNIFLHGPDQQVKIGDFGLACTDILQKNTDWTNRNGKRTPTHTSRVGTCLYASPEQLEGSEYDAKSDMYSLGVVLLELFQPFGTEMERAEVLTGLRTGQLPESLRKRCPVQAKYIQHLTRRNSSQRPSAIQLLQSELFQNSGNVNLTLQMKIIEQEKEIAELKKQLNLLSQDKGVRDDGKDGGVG
Assay [3] deals with Wee1-like protein kinase (Homo sapiens) (UniProt P30291). The assay can be described thus: Inhibition of WEE1 (unknown origin) assessed as residual activity at 100 nM by KINOMEscan analysis relative to control.
Sequence of Wee1-like protein kinase (Homo sapiens) (P30291 whole entry, looked up): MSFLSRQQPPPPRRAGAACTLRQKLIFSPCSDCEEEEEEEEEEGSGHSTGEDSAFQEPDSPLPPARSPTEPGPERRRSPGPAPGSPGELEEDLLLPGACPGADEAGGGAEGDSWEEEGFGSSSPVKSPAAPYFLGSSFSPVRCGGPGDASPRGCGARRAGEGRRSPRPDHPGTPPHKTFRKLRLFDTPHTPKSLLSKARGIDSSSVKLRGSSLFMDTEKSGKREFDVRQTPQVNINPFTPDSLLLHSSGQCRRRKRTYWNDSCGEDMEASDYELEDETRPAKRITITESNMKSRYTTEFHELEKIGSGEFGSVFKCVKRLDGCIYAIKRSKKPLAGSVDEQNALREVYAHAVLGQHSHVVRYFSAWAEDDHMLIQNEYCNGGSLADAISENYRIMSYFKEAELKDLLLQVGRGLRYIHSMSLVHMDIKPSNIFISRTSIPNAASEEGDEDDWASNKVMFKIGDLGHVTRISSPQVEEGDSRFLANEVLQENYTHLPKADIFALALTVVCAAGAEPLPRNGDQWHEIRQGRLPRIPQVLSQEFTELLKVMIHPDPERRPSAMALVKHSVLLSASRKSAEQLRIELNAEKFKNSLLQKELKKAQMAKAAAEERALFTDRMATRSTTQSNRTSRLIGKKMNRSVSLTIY
Assay [4] concerns Mast/stem cell growth factor receptor Kit (Homo sapiens), P10721 [V559D,V654A]. Kind of assay: Inhibition of KIT V559D/V654A mutant (unknown origin) assessed as residual activity at 100 nM by KINOMEscan analysis relative to control.
Sequence of Mast/stem cell growth factor receptor Kit (Homo sapiens), P10721 [V559D,V654A] (P10721 whole entry V559D/V654A, canonical isoform): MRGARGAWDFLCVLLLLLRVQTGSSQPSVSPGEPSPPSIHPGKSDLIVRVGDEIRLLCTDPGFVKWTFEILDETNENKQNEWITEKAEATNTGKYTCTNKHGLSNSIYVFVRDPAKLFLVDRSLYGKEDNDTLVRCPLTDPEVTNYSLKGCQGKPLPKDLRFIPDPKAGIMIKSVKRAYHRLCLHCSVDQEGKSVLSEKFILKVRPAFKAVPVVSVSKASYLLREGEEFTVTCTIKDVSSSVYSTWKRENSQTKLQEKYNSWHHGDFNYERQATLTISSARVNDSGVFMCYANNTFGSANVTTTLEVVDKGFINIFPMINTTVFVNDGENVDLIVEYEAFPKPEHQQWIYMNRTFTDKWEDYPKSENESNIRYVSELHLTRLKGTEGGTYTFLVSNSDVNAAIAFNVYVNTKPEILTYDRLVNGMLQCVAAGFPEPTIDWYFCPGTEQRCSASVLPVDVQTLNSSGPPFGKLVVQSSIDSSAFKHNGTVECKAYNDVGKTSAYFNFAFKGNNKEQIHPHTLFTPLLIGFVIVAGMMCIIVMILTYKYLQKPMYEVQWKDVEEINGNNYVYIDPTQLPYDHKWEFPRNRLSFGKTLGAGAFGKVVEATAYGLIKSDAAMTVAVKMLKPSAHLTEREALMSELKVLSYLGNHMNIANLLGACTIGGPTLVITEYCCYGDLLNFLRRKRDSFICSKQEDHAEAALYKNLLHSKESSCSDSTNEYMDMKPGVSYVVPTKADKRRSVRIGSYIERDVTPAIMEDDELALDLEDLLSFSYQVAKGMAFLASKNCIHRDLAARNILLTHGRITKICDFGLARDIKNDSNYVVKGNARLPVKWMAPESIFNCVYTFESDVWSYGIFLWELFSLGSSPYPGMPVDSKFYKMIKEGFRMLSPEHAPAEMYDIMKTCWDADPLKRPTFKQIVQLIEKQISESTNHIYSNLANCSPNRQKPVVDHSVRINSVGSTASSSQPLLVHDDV
In assay [5] the target is Phosphatidylinositol 4,5-bisphosphate 3-kinase catalytic subunit beta isoform (Homo sapiens) (UniProt P42338). The assay can be described thus: Inhibition of PIK3CB (unknown origin) assessed as residual activity at 100 nM by KINOMEscan analysis relative to control.
Assay [6] deals with Serine/threonine-protein kinase MAK (Homo sapiens) (UniProt P20794). The assay can be described thus: Inhibition of MAK (unknown origin) assessed as residual activity at 100 nM by KINOMEscan analysis relative to control.
For assay [7], the target named is Ribosomal protein S6 kinase alpha-1 (Homo sapiens) (UniProt Q15418). The assay can be described thus: Inhibition of N-terminal RSK1 kinetic domain 1 (unknown origin) assessed as residual activity at 100 nM by KINOMEscan analysis relative to control.
Sequence of Ribosomal protein S6 kinase alpha-1 (Homo sapiens) (Q15418 whole entry, the tested form may be a part): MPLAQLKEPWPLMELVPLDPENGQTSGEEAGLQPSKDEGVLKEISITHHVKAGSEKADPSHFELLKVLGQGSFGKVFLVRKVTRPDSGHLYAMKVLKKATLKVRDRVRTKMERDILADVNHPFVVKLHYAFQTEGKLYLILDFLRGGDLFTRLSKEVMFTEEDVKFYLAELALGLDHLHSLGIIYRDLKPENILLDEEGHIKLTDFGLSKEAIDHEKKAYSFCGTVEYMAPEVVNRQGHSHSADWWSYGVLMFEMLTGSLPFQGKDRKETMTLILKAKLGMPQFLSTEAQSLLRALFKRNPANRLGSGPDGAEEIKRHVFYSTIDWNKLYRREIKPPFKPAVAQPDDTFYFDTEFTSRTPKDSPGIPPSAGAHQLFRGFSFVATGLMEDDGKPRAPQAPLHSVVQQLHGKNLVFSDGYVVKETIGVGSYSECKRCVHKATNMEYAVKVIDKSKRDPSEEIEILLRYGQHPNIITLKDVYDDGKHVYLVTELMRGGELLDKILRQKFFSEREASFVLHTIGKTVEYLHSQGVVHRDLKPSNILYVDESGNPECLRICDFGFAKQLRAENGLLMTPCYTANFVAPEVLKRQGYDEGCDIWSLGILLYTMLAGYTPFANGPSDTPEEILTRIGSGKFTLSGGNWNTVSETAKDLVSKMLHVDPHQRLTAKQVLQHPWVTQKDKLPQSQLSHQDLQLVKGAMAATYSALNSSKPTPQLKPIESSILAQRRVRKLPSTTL
Assay [8] addresses Interleukin-1 receptor-associated kinase 1 (Homo sapiens) (UniProt P51617). Kind of assay: Inhibition of IRAK1 (unknown origin) assessed as residual activity at 100 nM by KINOMEscan analysis relative to control.
In assay [9] the target is Vascular endothelial growth factor receptor 2 (Homo sapiens) (UniProt P35968). Kind of assay: Inhibition of VEGFR2 (unknown origin) assessed as residual activity at 100 nM by KINOMEscan analysis relative to control.
Assay [10] has as its target T1, Myosin light chain kinase family member 4 (Homo sapiens) (UniProt Q86YV6).
T1 sequence (whole entry): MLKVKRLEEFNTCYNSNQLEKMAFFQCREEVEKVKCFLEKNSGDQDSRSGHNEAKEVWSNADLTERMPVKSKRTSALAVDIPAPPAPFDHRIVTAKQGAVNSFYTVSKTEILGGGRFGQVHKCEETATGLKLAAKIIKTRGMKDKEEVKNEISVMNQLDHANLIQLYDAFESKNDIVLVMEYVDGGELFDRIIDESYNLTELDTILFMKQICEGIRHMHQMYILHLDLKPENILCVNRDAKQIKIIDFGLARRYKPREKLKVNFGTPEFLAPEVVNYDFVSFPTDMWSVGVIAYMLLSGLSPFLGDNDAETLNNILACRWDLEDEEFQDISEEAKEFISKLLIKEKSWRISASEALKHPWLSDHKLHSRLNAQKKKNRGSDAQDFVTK
Kind of assay: Inhibition of MYLK4 (unknown origin) assessed as residual activity at 100 nM by KINOMEscan analysis relative to control.

Assay [11] addresses T2, SNF-related serine/threonine-protein kinase (Homo sapiens) (UniProt Q9NRH2).
T2 sequence (whole entry): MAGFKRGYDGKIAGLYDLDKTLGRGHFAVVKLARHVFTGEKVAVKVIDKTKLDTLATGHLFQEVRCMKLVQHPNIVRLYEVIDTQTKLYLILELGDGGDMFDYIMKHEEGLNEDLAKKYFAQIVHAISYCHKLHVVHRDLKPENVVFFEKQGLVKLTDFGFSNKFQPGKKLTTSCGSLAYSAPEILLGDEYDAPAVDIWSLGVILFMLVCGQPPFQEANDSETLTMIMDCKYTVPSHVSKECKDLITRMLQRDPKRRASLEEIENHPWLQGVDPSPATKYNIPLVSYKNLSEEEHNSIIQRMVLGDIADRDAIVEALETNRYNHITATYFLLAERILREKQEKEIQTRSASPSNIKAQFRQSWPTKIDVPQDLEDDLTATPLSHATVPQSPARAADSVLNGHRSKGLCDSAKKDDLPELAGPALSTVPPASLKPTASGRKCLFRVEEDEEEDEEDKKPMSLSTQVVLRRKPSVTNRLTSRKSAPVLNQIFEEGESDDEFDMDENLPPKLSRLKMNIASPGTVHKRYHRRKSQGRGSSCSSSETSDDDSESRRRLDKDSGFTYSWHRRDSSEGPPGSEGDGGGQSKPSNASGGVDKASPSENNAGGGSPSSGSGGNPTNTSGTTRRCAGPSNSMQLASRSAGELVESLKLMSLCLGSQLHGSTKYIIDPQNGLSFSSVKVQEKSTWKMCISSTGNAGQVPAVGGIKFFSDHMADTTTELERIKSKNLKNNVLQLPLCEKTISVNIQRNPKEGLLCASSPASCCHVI
The assay can be described thus: Inhibition of SNRK (unknown origin) assessed as residual activity at 100 nM by KINOMEscan analysis relative to control.

Assay [12] has as its target T3, Serine/threonine-protein kinase haspin (Homo sapiens) (UniProt Q8TF76).
T3 sequence (whole entry): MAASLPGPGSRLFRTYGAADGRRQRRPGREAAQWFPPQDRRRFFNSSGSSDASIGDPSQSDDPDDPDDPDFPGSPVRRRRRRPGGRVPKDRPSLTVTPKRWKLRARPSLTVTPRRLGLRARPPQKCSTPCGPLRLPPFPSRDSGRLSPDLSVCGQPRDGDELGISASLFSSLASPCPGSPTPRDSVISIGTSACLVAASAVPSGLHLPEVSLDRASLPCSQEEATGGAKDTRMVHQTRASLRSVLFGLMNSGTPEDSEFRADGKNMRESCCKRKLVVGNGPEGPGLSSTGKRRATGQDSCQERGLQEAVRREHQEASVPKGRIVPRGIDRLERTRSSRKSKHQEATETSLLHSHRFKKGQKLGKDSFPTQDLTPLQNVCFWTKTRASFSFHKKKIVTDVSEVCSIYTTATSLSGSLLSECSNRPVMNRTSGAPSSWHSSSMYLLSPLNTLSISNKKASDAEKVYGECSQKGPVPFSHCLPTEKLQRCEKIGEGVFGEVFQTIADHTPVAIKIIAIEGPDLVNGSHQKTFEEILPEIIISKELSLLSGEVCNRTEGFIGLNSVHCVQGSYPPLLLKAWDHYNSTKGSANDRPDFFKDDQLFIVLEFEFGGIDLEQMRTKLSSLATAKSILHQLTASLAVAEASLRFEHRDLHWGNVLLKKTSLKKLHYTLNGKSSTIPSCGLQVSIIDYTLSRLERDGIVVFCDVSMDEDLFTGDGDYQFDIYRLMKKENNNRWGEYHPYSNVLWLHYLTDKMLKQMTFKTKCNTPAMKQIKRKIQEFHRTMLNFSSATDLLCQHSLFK
Kind of assay: Inhibition of HASPIN (unknown origin) assessed as residual activity at 100 nM by KINOMEscan analysis relative to control.

Sequence of Phosphatidylinositol 3-kinase catalytic subunit type 3 (Homo sapiens) (Q8NEB9 whole entry): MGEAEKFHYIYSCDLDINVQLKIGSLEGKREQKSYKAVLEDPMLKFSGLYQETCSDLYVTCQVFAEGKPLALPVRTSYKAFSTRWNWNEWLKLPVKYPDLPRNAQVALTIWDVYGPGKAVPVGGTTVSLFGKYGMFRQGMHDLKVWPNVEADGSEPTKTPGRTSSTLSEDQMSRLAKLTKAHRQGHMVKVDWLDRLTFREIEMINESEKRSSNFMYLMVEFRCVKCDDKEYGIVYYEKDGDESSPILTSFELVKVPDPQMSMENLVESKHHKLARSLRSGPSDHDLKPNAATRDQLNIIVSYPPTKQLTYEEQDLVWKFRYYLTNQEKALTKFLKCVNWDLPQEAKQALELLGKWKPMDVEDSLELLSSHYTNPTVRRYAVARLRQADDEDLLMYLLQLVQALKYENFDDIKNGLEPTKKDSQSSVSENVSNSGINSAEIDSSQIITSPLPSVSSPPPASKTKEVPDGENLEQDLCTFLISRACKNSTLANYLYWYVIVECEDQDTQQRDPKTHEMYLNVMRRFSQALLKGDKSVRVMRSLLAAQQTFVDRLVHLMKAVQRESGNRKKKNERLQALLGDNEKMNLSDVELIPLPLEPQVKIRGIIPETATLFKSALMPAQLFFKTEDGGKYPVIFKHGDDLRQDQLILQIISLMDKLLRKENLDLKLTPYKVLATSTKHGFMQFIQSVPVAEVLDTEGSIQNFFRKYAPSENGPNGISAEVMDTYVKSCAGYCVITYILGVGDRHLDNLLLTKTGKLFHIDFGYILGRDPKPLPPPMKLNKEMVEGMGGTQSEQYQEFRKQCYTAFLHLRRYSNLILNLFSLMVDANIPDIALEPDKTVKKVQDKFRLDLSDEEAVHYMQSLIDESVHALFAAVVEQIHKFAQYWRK
Sequence of Interleukin-1 receptor-associated kinase 1 (Homo sapiens) (P51617 whole entry, looked up): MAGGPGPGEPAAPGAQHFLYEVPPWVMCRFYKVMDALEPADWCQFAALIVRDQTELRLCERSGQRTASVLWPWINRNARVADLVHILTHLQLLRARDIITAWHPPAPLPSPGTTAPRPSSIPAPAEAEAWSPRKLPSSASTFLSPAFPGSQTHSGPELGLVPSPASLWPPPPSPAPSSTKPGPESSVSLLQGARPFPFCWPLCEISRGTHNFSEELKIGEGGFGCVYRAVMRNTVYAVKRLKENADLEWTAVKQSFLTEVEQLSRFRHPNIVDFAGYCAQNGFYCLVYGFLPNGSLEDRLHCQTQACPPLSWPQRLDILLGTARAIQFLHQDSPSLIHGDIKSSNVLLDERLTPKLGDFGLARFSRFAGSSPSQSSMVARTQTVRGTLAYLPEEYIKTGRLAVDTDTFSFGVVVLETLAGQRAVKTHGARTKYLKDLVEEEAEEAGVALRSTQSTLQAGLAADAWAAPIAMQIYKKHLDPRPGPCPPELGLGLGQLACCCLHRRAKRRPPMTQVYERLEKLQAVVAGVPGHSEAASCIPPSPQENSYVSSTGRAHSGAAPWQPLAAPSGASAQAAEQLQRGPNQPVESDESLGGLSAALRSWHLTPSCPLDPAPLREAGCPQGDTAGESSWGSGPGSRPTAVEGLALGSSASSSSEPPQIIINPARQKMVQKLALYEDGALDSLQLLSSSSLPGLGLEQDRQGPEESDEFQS

For the compound `COc1cc2nc(C)nc(N[C@H](C)c3cccc(-c4cn[nH]c4)c3)c2cc1OC`, in assay [1], the Activity was found to be 100%.
`COc1cc2ncnc(N[C@H](C)c3cccc4ccccc34)c2cc1OC`: the Activity in assay [2] stood at 67%; in assay [3], 88%; in assay [4], 100%; in assay [5], 72%; in [6], 100%; in assay [7] it was 90%. In addition, the Activity amounted to 94% in assay [8]; 75% in assay [9]; 99% in assay [10]; 74% in assay [11]; 95% in [12].

For the origin of these results see ChEMBL document CHEMBL5678818, “Discovery of potent SOS1 inhibitors that block RAS activation via disruption of the RAS-SOS1 interaction” (Proc Natl Acad Sci U S A, 2019).
